Calls of active or inactive are those of the source. The calls are words filed in the database; no cut-off is given here.
Legend:
Bacillus subtilis = experiment: Antibacterial activity against Bacillus subtilis at 100 ug/disk; format: functional
Klebsiella pneumoniae = experiment: Antibacterial activity against Klebsiella pneumoniae at 100 ug/disk; format: functional
Artemia = experiment: Toxicity against brine shrimp; format: organism-based; details: in vivo
Staphylococcus aureus = experiment: Antibacterial activity against Staphylococcus aureus at 100 ug/disk; format: functional
Escherichia coli = experiment: Antibacterial activity against sEscherichia coli at 100 ug/disk; format: functional

Compound	Activity (Bacillus subtilis)	Activity (Klebsiella pneumoniae)	Activity (Artemia)	Activity (Staphylococcus aureus)	Activity (Escherichia coli)	zone of inhibition at 100 µg/disc (Bacillus subtilis; read-out: IZ) [mm]	zone of inhibition at 100 µg/disc (Klebsiella pneumoniae; read-out: IZ) [mm]	zone of inhibition at 100 µg/disc (Staphylococcus aureus; read-out: IZ) [mm]	zone of inhibition at 100 µg/disc (Escherichia coli; read-out: IZ) [mm]
COc1cc(O)c2c(c1)C(COC(C)=O)N(C=O)C=C2 (stereo not given)	inactive	inactive	Non-toxic	inactive	inactive				
CC(=O)OCc1nccc2c1C(=O)C(O)=C(C)C2=O			Non-toxic			16	12	14	12
